Measurements reported in article PMC3427410 (Nature chemical biology, 2012).

Biological target: T1, FUT7 (Homo sapiens, UniProt Q11130)
T1 sequence (Q11130 1-342): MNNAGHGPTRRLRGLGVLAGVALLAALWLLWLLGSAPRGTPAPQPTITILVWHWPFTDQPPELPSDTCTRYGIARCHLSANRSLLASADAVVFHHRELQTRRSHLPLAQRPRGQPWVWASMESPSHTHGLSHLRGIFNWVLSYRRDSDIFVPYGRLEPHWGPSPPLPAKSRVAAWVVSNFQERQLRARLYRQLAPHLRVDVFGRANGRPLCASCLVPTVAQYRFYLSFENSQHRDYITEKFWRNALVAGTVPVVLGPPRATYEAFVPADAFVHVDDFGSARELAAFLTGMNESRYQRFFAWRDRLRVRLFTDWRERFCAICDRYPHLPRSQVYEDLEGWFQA
Assay: in vitro fucosyltransferase assay, competition with GDP-Fuc transfer
Type: biochemical

IC50: ~2.5 µM
SMILES: Nc1nc2c(ncn2[C@@H]2O[C@H](COP(=O)(O)OP(=O)(O)O[C@H]3O[C@@H](CF)[C@@H](O)[C@@H](O)[C@@H]3O)[C@@H](O)[C@H]2O)c(=O)[nH]1 [compound 6, GDP-6F-Fuc]
